Measurements from patent US5235045A, “Non-azo naphthalimide dyes” (priority 1992, dated 1993).

What was measured:
[1] = Tissue bonding of beef muscle strips with DiEd6Br and light; conditions: 0.1 millimolar
Excerpt: Bonding together of the overlapping surfaces of two strips of swine dura mater and of two thin slices of beef muscle with application of DiEd6Br in Cremophor EL as a carrier and irradiation with 420 # 5 nm light filtered from a xenon arc lamp were studied.
Thin strips approximately 10 cm long, 1 cm wide, and 0.05-0.1 cm thick were sliced from beef steak obtained from a local meat market. Surfaces of the strips of two sample pairs were coated with a stock solution of DiEd6Br in Cremophor EL (0.1 millimolar concentration) and placed together to give approximately 2 cm overlap. One overlapping strip sample was irradiated for 24 hours with water-filtered (IR spectrum absorber) light from a 150 w xenon arc lamp. Beam diameter incident on the sample was approximately 3 cm. The other sample was wrapped in aluminum foil, placed alongside the irradiated sample, and served as dark control.

Gramacidin D = assay: Effects of 420 nm radiation on liposomal-bound Gramacidin D and DiEd6Br fluorescence; type: biochemical; conditions: 100 J/cm^2, 420 nm; for Tryptophan fluorescence ratio irradiated/unirradiated (IT/DT): 0 μM dye 91.23
[2] = tested on: Herpes simplex virus type 1; assay: Effect of DiEd6Br and light on HSV-1 containing 15% fetal calf serum and human blood platelets (plaque assay); type: cell-based, MacIntyre strain; conditions: for log reduction at 0.156 µM / log reduction at 0.625 µM: Human alphaherpesvirus 1, Platelet, light or radiation study, read-out: Log10 Reduction
[3] = tested on: Herpes simplex virus type 1; assay: Effect of DiEd6Br and light on HSV-1 containing 15% fetal calf serum (plaque assay); type: cell-based, MacIntyre strain

CCCCCCN1C(=O)c2cccc3c(NCCNC(=O)CCCCC(=O)NCCNc4c(Br)cc5c6c(cccc46)C(=O)N(CCCCCC)C5=O)c(Br)cc(c23)C1=O [Compound XLIV]
bonding of strips ([1]; dark control): separated under their own weight | bonding of strips ([1]; irradiated 24 hours): discernable tactile finger pressure was felt when two hands were used to pull the irradiated strip apart, indicating bonding of the strip surface | DiEd6Br fluorescence ratio irradiated/unirradiated (ID/DD) (Gramacidin D; 10 μM): 5.03% | Tryptophan fluorescence ratio irradiated/unirradiated (IT/DT) (Gramacidin D; 10 μM): 10.57% | DiEd6Br fluorescence ratio irradiated/unirradiated (ID/DD) (Gramacidin D; 20 μM): 9.24% | Tryptophan fluorescence ratio irradiated/unirradiated (IT/DT) (Gramacidin D; 20 μM): 10.77% | DiEd6Br fluorescence ratio irradiated/unirradiated (ID/DD) (Gramacidin D; 50 μM): 20.26% | Tryptophan fluorescence ratio irradiated/unirradiated (IT/DT) (Gramacidin D; 50 μM): 14.40% | PFU/ml ([2]; 0.156 μM, 5 J/cm^2): 7.4 × 10^7 PFU/ml | PFU/ml ([2]; 0.156 μM, 10 J/cm^2): 6.0 × 10^7 PFU/ml | PFU/ml ([2]; 0.156 μM, 20 J/cm^2): 1.5 × 10^7 PFU/ml | PFU/ml ([2]; 0.156 μM, 40 J/cm^2): 4.5 × 10^6 PFU/ml | PFU/ml ([2]; 0.156 μM, 60 J/cm^2): 1.5 × 10^6 PFU/ml | PFU/ml ([2]; 625 μM (so in the source), 5 J/cm^2): 5.0 × 10^5 PFU/ml | PFU/ml ([2]; 625 μM (so in the source), 10 J/cm^2): 4.5 × 10^5 PFU/ml | PFU/ml ([2]; 625 μM (so in the source), 20 J/cm^2): 2.0 × 10^4 PFU/ml | PFU/ml ([2]; 625 μM (so in the source), 40 J/cm^2): 1.1 × 10^3 PFU/ml | PFU/ml ([2]; 625 μM (so in the source), 60 J/cm^2): None detected | log reduction at 0.156 µM ([2]; 0.156 μM, 5 J/cm^2): 0.01 | log reduction at 0.156 µM ([2]; 0.156 μM, 10 J/cm^2): 0.1 | log reduction at 0.156 µM ([2]; 0.156 μM, 20 J/cm^2): 0.7 | log reduction at 0.156 µM ([2]; 0.156 μM, 40 J/cm^2): 1.22 | log reduction at 0.156 µM ([2]; 0.156 μM, 60 J/cm^2): 1.7 | log reduction at 0.625 µM ([2]; 5 J/cm^2): 2.18 | log reduction at 0.625 µM ([2]; 10 J/cm^2): 2.22 | log reduction at 0.625 µM ([2]; 20 J/cm^2): 3.58 | log reduction at 0.625 µM ([2]; 40 J/cm^2): 4.84 | log reduction at 0.625 µM ([2]; 60 J/cm^2): 7 | kill of HSV-1 ([2]; as low as 0.625 mM, 60 J/cm^2, 15% serum proteins and platelets): > 99.86% | PFU/ml ([3]; 1.25 μM, 15% fetal calf serum, 20 J/cm2, 420 nm): 0 PFU/ml | PFU/ml ([3]; 2.5 μM, 15% fetal calf serum, 20 J/cm2, 420 nm): 0 PFU/ml | PFU/ml ([3]; 5 μM, 15% fetal calf serum, 20 J/cm2, 420 nm): 0 PFU/ml | PFU/ml ([3]; 10 μM, 15% fetal calf serum, 20 J/cm2, 420 nm): 0 PFU/ml | PFU/ml ([3]; .078 μM, 15% fetal calf serum, 20 J/cm2, 420 nm): 4.2 × 10^4 PFU/ml | PFU/ml ([3]; .156 μM, 15% fetal calf serum, 20 J/cm2, 420 nm): 4.5 × 10^3 PFU/ml | PFU/ml ([3]; .312 μM, 15% fetal calf serum, 20 J/cm2, 420 nm): 8.5 × 10^1 PFU/ml | PFU/ml ([3]; .625 μM, 15% fetal calf serum, 20 J/cm2, 420 nm): 6.0 × 10^1 PFU/ml | log reduction at 1.25 µM ([3]; Human alphaherpesvirus 1, light or radiation study, 1.25 μM, 15% fetal calf serum, 20 J/cm2, 420 nm, read-out: Log10 Reduction): ≥ 5 | log reduction at 2.5 µM ([3]; Human alphaherpesvirus 1, light or radiation study, 2.5 μM, 15% fetal calf serum, 20 J/cm2, 420 nm, read-out: Log10 Reduction): ≥ 5 | log reduction at 5 µM ([3]; Human alphaherpesvirus 1, light or radiation study, 5 μM, 15% fetal calf serum, 20 J/cm2, 420 nm, read-out: Log10 Reduction): ≥ 5 | log reduction at 10 µM ([3]; Human alphaherpesvirus 1, light or radiation study, 10 μM, 15% fetal calf serum, 20 J/cm2, 420 nm, read-out: Log10 Reduction): ≥ 5 | log reduction at 0.078 µM ([3]; Human alphaherpesvirus 1, light or radiation study, .078 μM, 15% fetal calf serum, 20 J/cm2, 420 nm, read-out: Log10 Reduction): 0.38 | log reduction at 0.156 µM ([3]; Human alphaherpesvirus 1, light or radiation study, .156 μM, 15% fetal calf serum, 20 J/cm2, 420 nm, read-out: Log10 Reduction): 1.35 | log reduction at 0.312 µM ([3]; Human alphaherpesvirus 1, light or radiation study, .312 μM, 15% fetal calf serum, 20 J/cm2, 420 nm, read-out: Log10 Reduction): 3.1 | log reduction at 0.625 µM ([3]; Human alphaherpesvirus 1, light or radiation study, .625 μM, 15% fetal calf serum, 20 J/cm2, 420 nm, read-out: Log10 Reduction): 4 | kill of HSV-1 ([3]; as low as 0.156 mM, 420 nm, 20 J/cm^2): > 99.99%
